# Read-outs that look alike come from different tables or passages of the source.
# Key:
# lambsquarters = assay: Test C preemergence; format: in vivo, Chenopodium album
# Text: Seeds of plant species selected from blackgrass (Alopecurus myosuroides), Italian ryegrass (Lolium multiflorum), wheat, winter (winter wheat, Triticum aestivum), galium (catchweed bedstraw, Galium aparine), corn (Zea mays), large (Lg) crabgrass (Digitaria sanguinalis), giant foxtail (Setaria faberii), johnsongrass (Sorghum halepense), lambsquarters (Chenopodium album), morningglory (Ipomoea coccinea), yellow nutsedge (Cyperus esculentus), pigweed (Amaranthus retroflexus), ragweed (common ragweed, Ambrosia elatior), soybean (Glycine max), barnyardgrass (Echinochloa crus-galli), oilseed rape (Brassica napus), waterhemp (common waterhemp, Amaranthus rudis), kochia (Kochia scoparia), wild oat (Avena fatua), surinam grass (Brachiaria decumbens), foxtail, green (green foxtail, Setaria viridis), goosegrass (Eleusine indica), bromegrass, downy (downy bromegrass, Bromus tectorum), nightshade (eastern black nightshade, Solanum ptycanthum), cocklebur (common cocklebur, Xanthium strumarium), cupgrass, woolly (woolly cupgrass, Eriochloa villosa), bermudagrass (Cynodon dactylon), sunflower, (common oilseed sunflower, Helianthus annuus), Russian thistle (Salsola kali), and velvetleaf (Abutilon theophrasti) were planted into a blend of loam soil and sand and treated preemergence with test chemicals formulated in a non-phytotoxic solvent mixture which included a surfactant.
# At the same time, plants selected from these crop and weed species and also barley, winter (winter barley, Hordeum vulgare), windgrass (Apera spica-venti), chickweed (common chickweed, Stellaria media), deadnettle (henbit deadnettle, Lamium amplexicaule), and canarygrass (littleseed canarygrass, Phalaris minor) were planted in pots containing Redi-Earth® planting medium (Scotts Company, 14111 Scottslawn Road, Marysville, Ohio 43041) comprising spaghnum peat moss, vermiculite, wetting agent and starter nutrients and treated with postemergence applications of test chemicals formulated in the same manner. Plants ranged in height from 2 to 18 cm (1- to 4-leaf stage) for postemergence treatments. Treated plants and controls were maintained in a greenhouse for 13 to 15 days, after which time all species were compared to controls and visually evaluated. Plant response ratings, summarized in Table C, are based on a scale of 0 to 100 where 0 is no effect and 100 is complete control. A dash (-) response means no test result.
# Italian ryegrass = assay: Test A postemergence; format: in vivo, Lolium multiflorum
# In short: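 Pre- and postemergence greenhouse screen. Soil: loam + sand. Spray carrier: solvent mixture, non-phytotoxic, with surfactant. Post timing at 1–2 leaves, height 2–10 cm. Readout: visual injury on a 0–100 scale roughly 10 days after application, untreated plants as reference.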
# [1] = 16 g ai/ha, preemergence, scale 0 to 100 (0 no effect, 100 complete control)
# [2] = 62 g ai/ha, preemergence, scale 0 (no effect) to 100 (complete control)
# [3] = 125 g ai/ha, preemergence, scale 0 (no effect) to 100 (complete control)
# [4] = Preemergence, 31 g ai/ha, scale 0 to 100, 0 no effect, 100 complete control
# [5] = 125 g ai/ha, 0 to 100 scale where 0 is no effect and 100 is complete control
# [6] = 500 g ai/ha, 0 to 100 scale where 0 is no effect and 100 is complete control
# [7] = 1000 g ai/ha, 0 to 100 scale, 0 no effect, 100 complete control
# [8] = Chenopodium album, pre-emergence, 16 g ai/ha, preemergence, scale 0 to 100 (0 no effect, 100 complete control), read-out: Lambsquarters plant response rating
# [9] = Chenopodium album, pre-emergence, 62 g ai/ha, preemergence, scale 0 (no effect) to 100 (complete control), read-out: Lambsquarters plant response rating
# [10] = Chenopodium album, pre-emergence, 125 g ai/ha, preemergence, scale 0 (no effect) to 100 (complete control), read-out: Lambsquarters plant response rating
# [11] = 31 g ai/ha, 0 to 100 scale, 0 no effect, 100 complete control
# [12] = Preemergence, 62 g ai/ha, scale 0 to 100, 0 no effect, 100 complete control
# [13] = 125 g ai/ha, 0 to 100 scale, 0 no effect, 100 complete control
compound,measurement,setting,value
CC(C)c1cnn(-c2c(C#N)cccc2Oc2ncc(Cl)cn2)c1 [Compound 85],Lambsquarters plant response rating,lambsquarters; [1],65
same,Lambsquarters plant response rating,lambsquarters; [2],100
same,Lambsquarters plant response rating,lambsquarters; [3],100
same,"Plant response rating, Lambsquarters",lambsquarters; [4],100
same,"Plant response rating, Ryegrass, Italian",Italian ryegrass; [5],60
same,"Plant response rating, Ryegrass, Italian",Italian ryegrass; [6],100
Fc1cnc(Oc2cccc(C(F)F)c2-n2cc(Cl)cn2)nc1 [Compound 94],Lambsquarters plant response rating,lambsquarters; [1],40
same,Lambsquarters plant response rating,lambsquarters; [2],100
same,Lambsquarters plant response rating,lambsquarters; [3],100
same,"Plant response rating, Lambsquarters",lambsquarters; [4],85
N#Cc1cccc(Oc2ncc(Cl)cn2)c1-n1cc(OC(F)F)cn1 [Compound 97],Lambsquarters plant response rating,lambsquarters; [1],95
same,Lambsquarters plant response rating,lambsquarters; [2],100
same,Lambsquarters plant response rating,lambsquarters; [3],98
same,"Plant response rating, Lambsquarters",lambsquarters; [4],98
Clc1cnc(Oc2cccc(Br)c2-n2cc(I)nn2)nc1 [Compound 117],"Plant response rating, Ryegrass, Italian",Italian ryegrass; [6],90
FCc1cn(-c2ccccc2Oc2ncc(Cl)cn2)nn1 [Compound 123],"Plant response rating, Ryegrass, Italian",Italian ryegrass; [7],90
"N#Cc1cccc(Oc2ncc(Cl)cn2)c1-n1cc(SC(F)(F)F)cn1 [Compound 134, 3-[(5-chloro-2-pyrimidinyl)oxy]-2-[4-(trifluoromethylthio)-1-pyrazolyl]benzonitrile]",pest or weed control at 16 g/ha,lambsquarters; [8],60%
same,pest or weed control at 62 g/ha,lambsquarters; [9],100%
same,pest or weed control at 125 g/ha,lambsquarters; [10],100%
same,pest or weed control at 31 g/ha,"lambsquarters; Chenopodium album, pre-emergence, Preemergence, 31 g ai/ha, scale 0 to 100, 0 no effect, 100 complete control, read-out: Plant response rating, Lambsquarters",100%
same,"Ryegrass, Italian plant response rating",Italian ryegrass; [5],50
same,"Plant response rating, Ryegrass, Italian",Italian ryegrass; [6],100
N#Cc1cnn(-c2c(C#N)cccc2Oc2ncc(Br)cn2)c1 [Compound 135],Lambsquarters plant response rating,lambsquarters; [1],30
same,Lambsquarters plant response rating,lambsquarters; [2],85
same,"Plant response rating, Lambsquarters",lambsquarters; [4],85
same,"Ryegrass, Italian plant response rating",Italian ryegrass; [5],20
same,"Plant response rating, Ryegrass, Italian",Italian ryegrass; [6],70
N#Cc1cnn(-c2c(Br)cccc2Oc2ncc(Cl)cn2)c1 [Compound 140],"Plant response rating, Ryegrass, Italian",Italian ryegrass; [11],0
same,"Ryegrass, Italian plant response rating",Italian ryegrass; [5],30
"Fc1cccc(Oc2ncc(Cl)cn2)c1-n1cc(C(F)F)nn1 [Compound 141, 5-chloro-2-[2-[4-(difluoromethyl)-1H-1,2,3-triazol-1-yl]-3-fluorophenoxy]pyrimidine]",pest or weed control at 16 g/ha,lambsquarters; [8],85%
same,pest or weed control at 62 g/ha,lambsquarters; [9],100%
same,pest or weed control at 125 g/ha,lambsquarters; [10],100%
same,"Plant response rating, Ryegrass, Italian",Italian ryegrass; [11],60
same,"Ryegrass, Italian plant response rating",Italian ryegrass; [5],80
"FC(F)c1cn(-c2ccccc2Oc2ncc(Cl)cn2)nn1 [Compound 147, 5-chloro-2-[2-[4-(difluoromethyl)-1H-1,2,3-triazol-1-yl]phenoxy]pyrimidine]",pest or weed control at 16 g/ha,lambsquarters; [8],100%
same,pest or weed control at 62 g/ha,lambsquarters; [9],100%
same,pest or weed control at 125 g/ha,lambsquarters; [10],100%
same,"Ryegrass, Italian plant response rating",Italian ryegrass; [5],70
same,"Plant response rating, Ryegrass, Italian",Italian ryegrass; [6],90
FCc1cccc(Oc2ncc(F)cn2)c1-n1cc(I)cn1 [Compound 152],"Plant response rating, Ryegrass, Italian",Italian ryegrass; [11],0
same,"Ryegrass, Italian plant response rating",Italian ryegrass; [5],20
"Clc1cnc(Oc2ccccc2-n2cc(C3CC3)nn2)nc1 [Compound 160, 5-chloro-2-[2-(4-cyclopropyl-1H-1,2,3-triazol-1-yl)phenoxy]pyrimidine]","Plant response rating, Ryegrass, Italian",Italian ryegrass; [7],90
N#Cc1cnn(-c2c(Oc3ncc(F)cn3)cccc2C(F)F)c1 [Compound 240],Lambsquarters plant response rating,lambsquarters; [1],70
same,Lambsquarters plant response rating,lambsquarters; [3],100
same,"Plant response rating, Lambsquarters",lambsquarters; [12],100
same,"Plant response rating, Ryegrass, Italian",Italian ryegrass; [13],40
same,"Plant response rating, Ryegrass, Italian",Italian ryegrass; [6],100
FCc1cccc(Oc2ncc(Cl)cn2)c1-n1cc(I)cn1 [Compound 245],"Plant response rating, Ryegrass, Italian",Italian ryegrass; [11],0
same,"Plant response rating, Ryegrass, Italian",Italian ryegrass; [13],20
"N#Cc1cccc(Oc2ncc(Cl)cn2)c1-n1cc(C(F)F)cn1 [Compound 253, 3-(5-chloropyrimidin-2-yl)oxy-2-[4-(difluoromethyl)-1H-pyrazol-1-yl]benzonitrile]",pest or weed control at 16 g/ha,lambsquarters; [8],100%
same,pest or weed control at 125 g/ha,lambsquarters; [10],100%
same,pest or weed control at 62 g/ha,"lambsquarters; Chenopodium album, pre-emergence, Preemergence, 62 g ai/ha, scale 0 to 100, 0 no effect, 100 complete control, read-out: Plant response rating, Lambsquarters",100%
same,"Plant response rating, Ryegrass, Italian",Italian ryegrass; [11],0
same,"Plant response rating, Ryegrass, Italian",Italian ryegrass; [13],50
FC(F)Oc1cnn(-c2c(Cl)cccc2Oc2ncc(Cl)cn2)c1 [Compound 258],Lambsquarters plant response rating,lambsquarters; [1],65
same,Lambsquarters plant response rating,lambsquarters; [3],98
same,"Plant response rating, Lambsquarters",lambsquarters; [12],98
same,"Plant response rating, Ryegrass, Italian",Italian ryegrass; [11],0
same,"Plant response rating, Ryegrass, Italian",Italian ryegrass; [13],20
N#Cc1cn(-c2c(C#N)cccc2Oc2ncc(Cl)cn2)nn1 [Compound 273],Lambsquarters plant response rating,lambsquarters; [1],35
same,Lambsquarters plant response rating,lambsquarters; [3],100
same,"Plant response rating, Lambsquarters",lambsquarters; [12],100
same,"Plant response rating, Ryegrass, Italian",Italian ryegrass; [13],50
same,"Plant response rating, Ryegrass, Italian",Italian ryegrass; [6],80

# Source: patent US9695155B2, “Herbicidal substituted pyrimidinyloxy benzene compounds” (E. I. DU PONT DE NEMOURS AND COMPANY, priority 2013, dated 2017)
